From ChEMBL document CHEMBL3351699, “Diarylthiazole: an antimycobacterial scaffold potentially targeting PrrB-PrrA two-component system” (J Med Chem, 2014) come the findings set out here.

For series [1], the system named is Mycobacterium tuberculosis. Kind of series: Antimicrobial activity against Mycobacterium tuberculosis H37Rv ATCC 27294 assessed as growth inhibition after 5 days by microdilution method. The series is classed as functional. Particulars: H37Rv ATCC 27294, 120 h. On the technique in general: Broth dilution looks for growth in wells or tubes with falling amounts of substance.

Series [2] deals with Mycobacterium tuberculosis. Kind of series: Ratio of MBC for Mycobacterium tuberculosis H37Rv ATCC 27294 to MIC for Mycobacterium tuberculosis H37Rv ATCC 27294. The series is classed as functional.
Series [3] is described as follows: Solubility of the compound. Type of series: physicochemical.
Series [4] relates to Mycobacterium tuberculosis. Briefly: Antimicrobial activity against clinical isolate Mycobacterium tuberculosis DKU76 assessed as growth inhibition after 7 days by turbidometry. The series is classed as functional. The following applies: DKU76, 168 h.
Series [5] relates to Mycobacterium tuberculosis. Briefly: Antimicrobial activity against clinical isolate Mycobacterium tuberculosis Harlingen assessed as growth inhibition after 7 days by turbidometry. The series is classed as functional. The following applies: 168 h.
Series [6] relates to Mycobacterium tuberculosis. Briefly: Antimicrobial activity against clinical isolate Mycobacterium tuberculosis JAL assessed as growth inhibition after 7 days by turbidometry. The series is classed as functional. The following applies: 168 h.
The test system of series [7] is Mycobacterium tuberculosis. Briefly: Antimicrobial activity against clinical isolate Mycobacterium tuberculosis ATCC35811 assessed as growth inhibition after 7 days by turbidometry. The series is classed as functional. The following applies: ATCC35811, 168 h.
Series [8] relates to Mycobacterium tuberculosis. Kind of series: Antimicrobial activity against clinical isolate Mycobacterium tuberculosis H37Rv ATCC 27294 assessed as growth inhibition after 7 days by turbidometry. The series is classed as functional. Particulars: H37Rv ATCC 27294, 168 h.
Series [9] deals with Mycobacterium tuberculosis. Briefly: Antimicrobial activity against clinical isolate Mycobacterium tuberculosis Erdman assessed as growth inhibition after 7 days by turbidometry. The series is classed as functional. Particulars: 168 h.
Series [10] has as its system Mycobacterium tuberculosis. Kind of series: Antimicrobial activity against clinical isolate Mycobacterium tuberculosis ATCC25618 assessed as growth inhibition after 7 days by turbidometry. Particulars: ATCC25618, 168 h. Type of series: functional.
Series [11] relates to Mycobacterium tuberculosis. Kind of series: Antimicrobial activity against clinical isolate Mycobacterium tuberculosis DKU220 assessed as growth inhibition after 7 days by turbidometry. The following applies: DKU220, 168 h. Type of series: functional.
Series [12] has as its system Mycobacterium tuberculosis. Kind of series: Antimicrobial activity against clinical isolate Mycobacterium tuberculosis DKU97A assessed as growth inhibition after 7 days by turbidometry. The series is classed as functional. The following applies: 168 h.
Series [13] deals with Mycobacterium tuberculosis. Kind of series: Bactericidal activity against Mycobacterium tuberculosis H37Rv ATCC 27294 after 5 days by microdilution method. The following applies: H37Rv ATCC 27294, 120 h. The series is classed as functional.
For series [14], the system named is Mycobacterium tuberculosis. Kind of series: Antimicrobial activity against clinical isolate Mycobacterium tuberculosis Beijing assessed as growth inhibition after 7 days by turbidometry. Type of series: functional. Particulars: 168 h.
The subject of series [15] is Mycobacterium tuberculosis. Briefly: Antimicrobial activity against clinical isolate Mycobacterium tuberculosis DKU211 assessed as growth inhibition after 7 days by turbidometry. The following applies: DKU211, 168 h. The series is classed as functional.

Converted amounts (≈) assume the structure as drawn.

As a reminder, the MIC80 is the lowest concentration that inhibits either 80% of growth or 80% of the strains tested, depending on the study. On to `CCCc1cc(-c2nc(-c3ccc(F)cc3)cs2)ccn1`, for which the MIC80 in [1] is 1 µg/mL (≈ 3.35 µM).
The term solubility denotes the concentration that dissolves in the medium under given conditions. Low readings indicate a poorly soluble substance, high ones a readily soluble substance. In general, MBC refers to the lowest tested concentration that kills the bacteria rather than only halting them. In the case of `CCCc1cc(-c2nc(-c3ccc(OCCN4CCOCC4)cc3)cs2)ccn1`, in [2], the Ratio is on record as 2. This compound registered a solubility in [3] of 29.8 µM (≈ 12.2 µg/mL). The MIC80 in series [4] came to 1 µg/mL (≈ 2.44 µM); in [5], 0.5 µg/mL (≈ 1.22 µM); in series [1], 1 µg/mL (≈ 2.44 µM); in series [6], 1 µg/mL (≈ 2.44 µM); in [7], 1 µg/mL (≈ 2.44 µM); in [8], 2 µg/mL (≈ 4.88 µM). The MIC80 stood at 1 µg/mL (≈ 2.44 µM) in series [9]; 2 µg/mL (≈ 4.88 µM) in series [10]; 2 µg/mL (≈ 4.88 µM) in [11]; 1 µg/mL (≈ 2.44 µM) in [12]; 1 µg/mL (≈ 2.44 µM) in [14]; 1 µg/mL (≈ 2.44 µM) in [15]. Moreover, the MBC in [13] amounted to 5.2 µg/mL (≈ 12.7 µM).
On to `Clc1ccc(-c2csc(-c3ccnc(C4CC4)c3)n2)cc1`, for which the MIC80 in [1] worked out at 4 µg/mL (≈ 12.8 µM).
Take `CN1CCC(c2nc(-c3ccc(Cl)cc3)cs2)CC1`: in series [1], the MIC80 was over 32 µg/mL.
In [3], `CCCc1cc(-c2nc(-c3ccc(OCCN(C)C)cc3)cs2)ccn1` gave a solubility of 279 µM (≈ 102 µg/mL). For the same compound, in series [1], the MIC80 came to 16 µg/mL (≈ 43.5 µM).
On to `CCCc1cc(-c2nc(-c3ccc(Cl)cc3)c(C(=O)O)s2)ccn1`, for which the MIC80 in series [1] was over 32 µg/mL.
Regarding `CCCc1cc(-c2nc(-c3ccnc(OCC)c3)cs2)ccn1`, the MIC80 in series [1] amounted to 0.1 µg/mL (≈ 0.307 µM). For the same compound, the MBC in series [13] was 0.1 µg/mL (≈ 0.307 µM).
With `CCCc1cc(-c2ncc(-c3ccnc(OC)c3)s2)ccn1`, in [1], the MIC80 came out at 32 µg/mL (≈ 103 µM).
Still for that read-out and setting: the value for `CC(=O)N1CCC(c2nc(-c3ccc(Cl)cc3)cs2)CC1` was over 32 µg/mL; that for `Clc1ccc(-c2csc(-c3ccnc(N4CCOCC4)c3)n2)cc1` was over 32 µg/mL; that for `CCCc1cc(-c2nc(-c3cncnc3)cs2)ccn1` was 4 µg/mL (≈ 14.2 µM).
For `CCCc1cc(-c2nc(-c3ccc(C(=O)NS(C)(=O)=O)cc3)cs2)ccn1`, the MIC80 in series [1] worked out at 32 µg/mL (≈ 79.7 µM).
Regarding `CCCc1cc(-c2nc(-c3ccc(Cl)cc3)c(C(=O)OCC)s2)ccn1`, the MIC80 in [1] is over 32 µg/mL.
Take `CCCc1cc(-c2nc(-c3ccc(OCC4CC4)cc3)cs2)ccn1`: the MIC80 in series [4] turned out to be 1 µg/mL (≈ 2.85 µM); in [5], 0.25 µg/mL (≈ 0.713 µM); in series [1], 0.25 µg/mL (≈ 0.713 µM); in [6], 0.5 µg/mL (≈ 1.43 µM); in series [7], 1 µg/mL (≈ 2.85 µM); in [8], 0.5 µg/mL (≈ 1.43 µM). For the same compound, the MIC80 stood at 0.5 µg/mL (≈ 1.43 µM) in series [9]; 0.5 µg/mL (≈ 1.43 µM) in series [10]; 0.5 µg/mL (≈ 1.43 µM) in [11]; 0.5 µg/mL (≈ 1.43 µM) in [12]; 0.25 µg/mL (≈ 0.713 µM) in [14]; 0.5 µg/mL (≈ 1.43 µM) in series [15].
On to `CCCc1cc(-c2nc(-c3ccc(NC(=O)NCC)cc3)cs2)ccn1`, for which, in [1], the MIC80 came out at 1 µg/mL (≈ 2.73 µM).
The same measure, in the same setting: the value for `CCCc1cc(-c2nc(-c3cccnc3)cs2)ccn1` was 1.6 µg/mL (≈ 5.69 µM); that for `Clc1ccc(-c2csc(-c3ccnc(OCC4CC4)c3)n2)cc1` was 2 µg/mL (≈ 5.83 µM).
Turning to `NNC(=O)c1ccncc1` [ISONIAZID], the MIC80 in [4], in [5], in [6], in series [7], in series [8] and in series [9] was 0.06 µg/mL (≈ 0.438 µM) in each case. For the same compound, the MIC80 in [10], in series [11], in series [12], in [14] and in series [15] was 0.06 µg/mL (≈ 0.438 µM) each time.
For the compound `CCCc1cc(-c2nc(-c3ccnc(OC)c3)cs2)ccn1`, the MIC80 in [1] came to 0.2 µg/mL (≈ 0.642 µM).
As to `O=c1cc(-c2nc(-c3ccc(Cl)cc3)cs2)cc[nH]1`, the MIC80 in series [1] was over 32 µg/mL.
On the same count and under the same terms, the value for `CCCc1cc(-c2nc(-c3ccc(C(=O)O)cc3)cs2)ccn1` was 16 µg/mL (≈ 49.3 µM); that for `CCCc1cc(-c2ncc(-c3ccncc3)s2)ccn1` was 32 µg/mL (≈ 114 µM); that for `CCNc1cc(-c2nc(-c3ccc(Cl)cc3)cs2)ccn1` was 8 µg/mL (≈ 25.3 µM).
With `CCCc1cc(-c2nc(-c3ccc(C)cc3)cs2)ccn1` [FATOSTATIN], the concentration in solution in series [3] (solubility) was 0.4 µM (≈ 0.118 µg/mL). The MIC80 in series [1] came to 1 µg/mL (≈ 3.4 µM).
